Assay results: patent US20140023592A1, “SELF COUPLING RECOMBINANT ANTIBODY FUSION PROTEINS” (RWTH Aachen, priority 2007, published 2014)

Tested on: FKBP-AGT fusion protein (SNAP-FKBP)
Test: Reactivity with FKBP-AGT fusion protein (protein trimer formation, SDS-PAGE/coomassie)
Format: biochemical
Details: in vitro, 4 h incubation at rt, SDS-PAGE with coomassie staining
Method: Determination of the Reactivity of Compound (FIG. 89), (FIG. 90), (FIG. 91), (FIG. 92) and (FIG. 96) with FKBP-AGT Fusion Protein 1 μL of a 591 μM solution of FKBP protein fused to a variant of AGT available from Covalys as […] and 1 μL of a 100 μM solution of compound (FIG. 89), (FIG. 90), (FIG. 91), (FIG. 92) or (FIG. 96) are added to 8 μL of a solution of 50 mM Tris-HCl pH 7.5; 100 mM NaCl; 0.1% Tween20TM; 1 mM DTT. Following a 4 h incubation at rt, 15 μL of a solution of 100 mM Tris-HCl pH 6.8; 2% SDS; 35% glycerol; 10 mM EDTA; 20 mM DTT is added. Then the mixture is boiled for 5 min at 95° C. After cooling to rt, 25 μL of this solution is loaded on a 4-20% linear gradient SDS-PAGE gel. After electrophoresis, the proteins are coomassie stained in gel to visualize protein trimer.

FKBP-AGT fusion protein (SNAP-FKBP), sequence (P16455 1-182 C62A/K125A/A127T/R128A/G131K/G132T/M134L/R135S/C150S/N157G/S159E limits assumed): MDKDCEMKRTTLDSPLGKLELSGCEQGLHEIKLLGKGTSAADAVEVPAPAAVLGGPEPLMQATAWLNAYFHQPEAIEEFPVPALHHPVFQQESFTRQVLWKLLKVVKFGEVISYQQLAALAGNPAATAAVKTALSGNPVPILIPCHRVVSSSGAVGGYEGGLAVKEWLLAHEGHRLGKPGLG

Row | Substance | structural ability to trigger the formation of a protein trimer
1 | N-Tris-{[2-(BG-PEG12-NH)-carbonylethoxy]methyl}-methyl 5-maleimidopentanecarboxamide [FIG. 92] | confirmed
2 | N-Tris-{[2-(BG-PEG12-NH)-carbonylethoxy]methyl}-methyl ATTO-495-carboxamide [FIG. 90] | confirmed
3 | N-Tris-{[2-(BG-PEG12-NH)-carbonylethoxy]methyl}-methyl nile red-oxyacetamide [FIG. 91] | confirmed
4 | N-Tris-{[2-(BG-PEG12-NH)-carbonylethoxy]methyl}-methyl-3-[2-(2-maleimidoethyl)disulfanyl]propanoylamide [FIG. 96] | confirmed
5 | N-Tris-{[2-(BG-PEG12-NH)-carbonylethoxy]methyl}methyl 7-(diethylamino)coumarin-3-carboxamide [FIG. 89] | confirmed
